Values of other authors as cited in the CATMoS acute toxicity set (Mansouri et al. 2021).
“And” between values parts separate entries of the source, which are not always exact repeats. Equal entries are not always repeated.

Assay: rat acute oral toxicity
Conditions: in vivo
In the case of `CCSC(=O)Oc1c(C(C)CC)cc([N+](=O)[O-])cc1[N+](=O)[O-]` (stereo unspecified), the LD50 is given as 147 mg/kg.
In the case of `CS(=O)(=O)c1ccc2c(c1)N(CCCN1CCC(C(N)=O)CC1)c1ccccc1S2`, the LD50 is given as 976 mg/kg.
In the case of `CC1(C)OCC(CO)O1` (stereo unspecified), the LD50 is listed as 7000 mg/kg.
For `COc1ccc(C(Oc2ccccc2)C2=NCCCN2)cc1F` (stereo unspecified), the LD50 is given as 1000 mg/kg.
In the case of `CCCCCCCl`, the LD50 is given as 7000 mg/kg.
For `CCC(=O)C(CC(C)N(C)C)(c1ccccc1)c1ccccc1` (stereo unspecified), the LD50 is given as 86 mg/kg.
In the case of `C=Cc1ccccc1Cl`, the LD50 is given as 5200 mg/kg.
For `COc1ccc([C@@H]2Sc3ccccc3N(CCN(C)C)C(=O)[C@@H]2OC(C)=O)cc1`, the LD50 is given as 560 mg/kg.
In the case of `CCCCN(C=O)CCCC`, the LD50 is given as 620 mg/kg.
For `O=C1NCCN1/N=C/c1ccc([N+](=O)[O-])o1`, the LD50 is given as 1680 mg/kg.
In the case of `CC(C)(C)N(Cl)Cl`, the LD50 is listed as 780 mg/kg.
In the case of `CC(N)CCN` (stereo unspecified), the LD50 is listed as 1350 mg/kg.
In the case of `c1cc(OCC2CO2)cc(OCC2CO2)c1` (stereo unspecified), the LD50 is listed as 2570 mg/kg.
In the case of `Cc1cccc(C)c1NC(=O)CN1CCCC1=O`, the LD50 is given as 1180 mg/kg.
For `Cc1ccccc1OCC(O)CN1CC=CCC1` (stereo unspecified), the LD50 is listed as 340 mg/kg.
For `CCCN(CCC)C(=O)C(CCC(=O)NCCCOC(=O)Cc1c(C)n(C(=O)c2ccc(Cl)cc2)c2ccc(OC)cc12)NC(=O)c1ccccc1` (stereo unspecified), the LD50 is given as 370 mg/kg.
In the case of `CC(=O)Nc1ccc(OC(=O)c2ccccc2OC(C)=O)cc1`, the LD50 is listed as 3500 mg/kg.
In the case of `COP(N)(=S)Oc1cc(Cl)c(Cl)cc1Cl` (stereo unspecified), the LD50 is listed as 700 mg/kg.
For `CNc1nsc2ccccc12`, the LD50 is given as 576 mg/kg.
In the case of `CCCCOC(=O)C1CCC(C(=O)OCCCC)C1` (stereo unspecified), the LD50 is listed as 6500 mg/kg.
In the case of `COC(=O)/C=C(/CC(=O)OC)OP(=O)(OC)OC`, the LD50 is listed as 31 mg/kg.
In the case of `CCN(CCO)CCn1c(Cc2ccccc2)nc2c1c(=O)n(C)c(=O)n2C`, the LD50 is listed as 1140 mg/kg.
In the case of `C[C@H]1O[C@H](O[C@H]2[C@H](O)[C@@H](O)[C@@H](O)[C@H](O)[C@@H]2O)[C@@H](N)C[C@@H]1NC(=N)C(=O)O`, the LD50 is given as 22000 mg/kg and 11400 mg/kg.
For `C=CC1OCCO1`, the LD50 is listed as 84.7 mg/kg.
In the case of `Cc1c([N+](=O)[O-])cc(N)cc1[N+](=O)[O-]`, the LD50 is given as 959 mg/kg.
In the case of `C[C@H]1O[C@@H](O[C@H]2[C@@H](O)C[C@H](O[C@H]3[C@@H](O)C[C@H](O[C@H]4CC[C@@]5(C)[C@H](CC[C@@H]6[C@@H]5C[C@@H](O)[C@]5(C)[C@@H](C7=CC(=O)OC7)CC[C@]65O)C4)O[C@@H]3C)O[C@@H]2C)C[C@H](O)[C@@H]1O`, the LD50 is given as 28.3 mg/kg.
For `Cc1ccc([N+](=O)[O-])cc1S(=O)(=O)Cl`, the LD50 is given as 7470 mg/kg.
In the case of `CCOc1ccccc1OCC`, the LD50 is given as 7250 mg/kg.
In the case of `O=C1C=CC(=O)N1c1cccc(N2C(=O)C=CC2=O)c1`, the LD50 is given as 1370 mg/kg.
For `O=C(CCCN1CC=C(n2c(=O)[nH]c3ccccc32)CC1)c1ccc(F)cc1`, the LD50 is listed as 750 mg/kg.
In the case of `Cc1cc(C)c(C2=C(OC(=O)OC(C)C)c3ccccc3C2=O)c(C)c1`, the LD50 is listed as 707 mg/kg.
For `CC(C/N=C/c1ccccc1O)/N=C/c1ccccc1O` (stereo unspecified), the LD50 is given as 4560 mg/kg.
For `Cc1ccnc(SCCC(F)=C(F)F)n1`, the LD50 is given as 844 mg/kg.
For `CCCC(=O)c1ccc2c(c1)N(CCCN(C)C)c1ccccc1S2`, the LD50 is given as 300 mg/kg.
For `BrC=CBr`, the LD50 is given as 117 mg/kg and 62 mg/kg.
In the case of `CC(C)(C)NCCC(O)c1cc(C(F)(F)F)nc2c(C(F)(F)F)cccc12` (stereo unspecified), the LD50 is listed as 2090 mg/kg.
In the case of `CC1(CCl)COC1`, the LD50 is given as 1120 mg/kg.
In the case of `CN(C)CCC=C1c2ccccc2C(C)(C)c2ccccc21`, the LD50 is given as 170 mg/kg.
In the case of `Cc1c(Nc2ccccc2C(=O)O)ccc(O)c1Cl`, the LD50 is given as 1850 mg/kg.
For `CC=Cc1ccccc1`, the LD50 is listed as 3600 mg/kg.
For `CCS(=O)CCSP(=S)(OC)OC` (stereo unspecified), the LD50 is listed as 100 mg/kg.
For `CCCOC(=O)Nc1ccco1`, the LD50 is given as 1600 mg/kg.
In the case of `CCOP(=O)(OCC)Oc1ccc([N+](=O)[O-])cc1`, the LD50 is given as 1.8 mg/kg.
In the case of `ClCC1OC1CCl` (stereo unspecified), the LD50 is given as 710 mg/kg.
In the case of `CN1CCN(CCCN2c3ccccc3Sc3ccccc32)CC1`, the LD50 is listed as 1380 mg/kg and 500 mg/kg.
In the case of `O=S(=O)(O)c1ccc2c(Cc3cccc4cc(S(=O)(=O)O)ccc34)cccc2c1`, the LD50 is given as 3800 mg/kg.
For `Cn1c(=O)c2c(ncn2CCCCCN2CCN(c3cccc(C(F)(F)F)c3)CC2)n(C)c1=O`, the LD50 is given as 660 mg/kg.
For `c1ccc(N(CCN2CCCCC2)Cc2ccccn2)cc1`, the LD50 is listed as 806 mg/kg and 740 mg/kg.
In the case of `C=C(OP(=O)(OCC)OCC)P(=O)(OC)OC`, the LD50 is given as 173 mg/kg.
In the case of `CC/C=C\CCO`, the LD50 is listed as 4700 mg/kg.
In the case of `CC1CN(CCCCCCCCNC(=O)Oc2ccc3c(c2)C2(C)CCN(C)C2N3C)CC(C)O1` (stereo unspecified), the LD50 is given as 56 mg/kg.
For `CC1(c2ccccc2)OC(C(=O)O)=CC1=O` (stereo unspecified), the LD50 is given as 3000 mg/kg.
In the case of `O=C1OC(c2ccc(O)cc2)(c2ccc(O)cc2)c2c(I)c(I)c(I)c(I)c21`, the LD50 is listed as 2800 mg/kg.
For `COB(OC)OC`, the LD50 is given as 6140 mg/kg.
For `C=CCN(CC=C)c1ccc(OC(=O)NC)cc1`, the LD50 is listed as 86.8 mg/kg.
In the case of `CCN1CCc2c3n(c4ccccc24)C(C(=O)OC)=CCC31` (stereo unspecified), the LD50 is given as 2350 mg/kg.
In the case of `Cc1occc1C(=O)Nc1ccccc1`, the LD50 is given as 12900 mg/kg.
In the case of `S=C(C=Cc1ccc2c(c1)OCO2)N1CCOCC1`, the LD50 is given as 285 mg/kg.
In the case of `N#CSCSC#N`, the LD50 is listed as 55 mg/kg.
For `Cc1cc(Cl)ccc1NC=O`, the LD50 is listed as 564 mg/kg.
For `COc1ccc(CCl)cc1OC`, the LD50 is listed as 4700 mg/kg.
In the case of `CSC(=S)N(C)C`, the LD50 is listed as 62 mg/kg.
In the case of `CCOC(=O)C1=C(COCCN)NC(C)=C(C(=O)OC)C1c1ccccc1Cl` (stereo unspecified), the LD50 is listed as 393 mg/kg.
In the case of `CCC(=O)OC1(c2ccccc2)CCN(C)C1C` (stereo unspecified), the LD50 is listed as 253 mg/kg.
For `NNS(=O)(=O)c1ccc(Oc2ccc(S(=O)(=O)NN)cc2)cc1`, the LD50 is listed as 2300 mg/kg.
For `CC1(C)CCC(NC(=O)[C@@H](N)CCC(=O)O)CC1`, the LD50 is listed as 1430 mg/kg.
For `Cn1cc[nH]c1=S`, the LD50 is listed as 2250 mg/kg.
In the case of `CCOC(=O)C1=CNC2CCCC(C)N2C1=O` (stereo unspecified), the LD50 is listed as 2500 mg/kg.
In the case of `Cc1cccc(C)c1N(CCCC(=O)O)C(=O)c1ccc(Cl)cc1`, the LD50 is given as 1900 mg/kg.
In the case of `Cc1ncc2cscc2c1O`, the LD50 is listed as 1500 mg/kg.
For `CC(=O)CC(=O)Nc1ccccc1`, the LD50 is given as 2450 mg/kg.
